{
  "source": "patent EP0811615A1",
  "about": "“1-Aryl-5-(substituted alkyl (thio) amido) pyrazoles and their use as pesticides” (RHONE-POULENC AGROCHIMIE, priority 1996, dated 1997)",
  "type_in_all_cases": "in vivo",
  "key": {"twospotted spider mite": {"system": "twospotted spider mite", "experiment": "Twospotted spider mite test", "conditions": "Tetranychus urticae, foliar, 144 h, read-out: control of mites", "description": "Twospotted spider mite: Leaves infested with adult and nymphal stages of the two-spotted spider mite, obtained from a stock culture were placed on the primary leaves of two bean plants growing in a 6 cm. peat pot. A sufficient number of mites (150-200) for testing were transferred to the fresh plants within a period of twenty-four hours. The potted plants (one pot per compound) were placed on a revolving turntable and sprayed, sufficient to wet the plants to runoff, with 100 ml of the 100 ppm test compound formulation by use of a DeVilbiss spray gun set at 40 psig. air pressure. As an untreated control, 100 ml of the water-acetone-DMF-emulsifler solution, containing no test compound, were also sprayed on infested plants. A treated control with a commercial technical compound, either dicofol or hexythiazox, formulated in the same manner, was tested as a standard. The sprayed plants were held for six days, after which a mortality count of motile forms was made."}, "housefly": {"system": "housefly", "experiment": "House fly bait test", "conditions": "Musca domestica; bait application at 100 ppm; adult flies, after 24 hours; read-out: pest mortality HF", "from_the_text": "For housefly tests, the formulation was initially prepared in a similar manner to the above, but in 16.3 g of water with corresponding adjustment of other components, providing a 200 ppm concentration. Final dilution with an equal volume of a 20% by weight aqueous solution of sucrose provided a 100 ppm concentration of the test compound. When necessary, sonication was provided to insure complete dispersion.\nHouse fly: Four to six day old adult house flies were reared according to the specifications of the Chemical Specialties Manufacturing Association (Blue Book, McNair-Dorland Co., N.Y. 1954; pages 243-244, 261) under controlled conditions. The flies were immobilized by anesthetizing with carbon dioxide and twenty five immobilized individuals, males and females, were transferred to a cage consisting of a standard food strainer and a wrapping-paper-covered surface. Ten ml of the 100 ppm test compound formulation were added to a soufflé cup containing an absorbent cotton pad. As an untreated control, 10 ml of a water-acetone-DMF-emulsifier-sucrose solution, containing no test compound, were applied in a similar manner. A treated control with a commercial technical compound, malathion, formulated in the same manner, was tested as a standard. The bait cup was introduced inside the food strainer prior to admitting the anesthetized flies."}, "southern armyworm": {"system": "southern armyworm", "experiment": "Southern armyworm foliar spray test on bean plants", "conditions": "Spodoptera eridania, 120 h; foliar application at 100 ppm; second instar larvae, held five days; read-out: pest mortality SAW", "description": "(§1) For mite, aphid, southern armyworm, Mexican bean beetle, and tobacco budworm tests, a solution or suspension was prepared by adding 10 mg of the test compound to a solution of 160 mg of dimethylformamide, 838 mg of acetone, 2 mg of a 3:1 ratio of Triton X-172 : Triton X-152 (respectively, mainly anionic and nonionic low foam emulsifiers which are each anhydrous blends of alkylaryl polyether alcohols with organic sulfonates), and […] of water. The result was a concentration of 100 ppm of the test compound.\n(§2) Southern armyworm: Potted bean plants, were placed on a revolving turntable and sprayed with 100 ml of the 100 ppm test compound formulation by use of a DeVilbiss spray gun set at 40 psig air pressure. As an untreated control, 100 ml of a water-acetone-DMF-emulsifier solution, containing no test compound, were also sprayed on plants. A treated control with a commercial technical compound, either cypermethrin or sulprofos, formulated in the same manner, was tested as a standard. When dry, the leaves were placed in plastic cups lined with moistened filter paper. Five randomly selected second instar southern armyworm larvae were introduced into each cup which was closed and held for five days. Larvae which were unable to move the length of the body, even upon stimulation by prodding, were considered dead."}, "Mexican bean beetle": {"system": "Mexican bean beetle", "experiment": "Mexican bean beetle foliar spray test on bean plants", "conditions": "Epilachna varivestis, 120 h; foliar application at 100 ppm; second instar larvae, held five days; read-out: pest mortality MBB", "description": "as §1\nas §2, with “Mexican bean beetle:” for “Southern armyworm:”, “plants” for “plants,”, “formulation, sufficient to wet the plants to runoff,” for “formulation”, “Mexican bean beetle” for “southern armyworm”"}, "[1]": {"system": "southern root-knot nematode", "experiment": "Southern root-knot nematode soil test on tomato", "design": "dose or concentration left out as unconfirmed", "conditions": "Meloidogyne incognita; Soil Conc. at 21 Kg/ha; second stage juveniles; read-out: pest mortality Nema (J2)", "description": "For southern root-knot nematode and systemic tests for southern armyworm, cotton aphid, tobacco budworm and greenbug, a stock solution or suspension was prepared by adding 15 mg of the test compound to 250 mg of dimethylformamide, 1250 mg of acetone and 3 mg of the emulsifier blend referenced above. Water was then added to provide a test compound concentration of 150 ppm. When necessary, sonication was provided to insure complete dispersion.\nSouthern root-knot nematode: Infected roots of tomato plants, containing egg masses of southern root-knot nematode, were removed from a stock culture and cleaned of soil by shaking and washing with tap water. The nematode eggs were separated from the root tissue and rinsed with water. Samples of the egg suspension were placed on a fine screen over a receiving bowl, in which the water level was adjusted to be in contact with the screen. From the bowl, juveniles were collected on a fine screen. The bottom of a cone-shaped container was plugged with coarse vermiculite and then filled to within 1.5 cm of the top with about a 200 ml volume of pasteurized soil. Then into a hole made in the center of the soil in the cone was pipetted an aliquot of the 150 ppm test compound formulation. A treated control with a commercial technical compound, fenamifos, formulated in a similar manner, was tested as a standard. As an untreated control, an aliquot of a water-acetone-DMF-emulsifier solution, containing no test compound, was applied in a similar manner. Immediately after treatment of the soil with the test compound there were added to the top of each cone 1000 second stage juvenile southern root-knot nematodes. After 3 days, a single healthy tomato seedling was then transplanted into the cone. The cone, containing the infested soil and tomato seedling, was kept in the greenhouse for 3 weeks. At the termination of the test, […], […]"}},
  "data": [
    {"compound": "COC(C)C(=O)Nc1c([S+]([O-])C(F)(F)F)c(C#N)nn1-c1c(Cl)cc(C(F)(F)F)cc1Cl", "note": "(centres unmarked) [Compound 24]", "values": [
      {"measurement": "mortality at 100 ppm", "setting": "twospotted spider mite", "result": "30 to 70", "unit": "%"},
      {"measurement": "mortality at 100 ppm", "setting": "housefly", "result": "70 to 100", "unit": "%"},
      {"measurement": "mortality at 100 ppm", "setting": "southern armyworm", "result": "70 to 100", "unit": "%"},
      {"measurement": "mortality at 100 ppm", "setting": "Mexican bean beetle", "result": "70 to 100", "unit": "%"},
      {"measurement": "mortality", "setting": "[1]", "result": "70 to 100", "unit": "%"}
    ]}
  ]
}
